Active and inactive are the calls of the source. The rule behind the calls is not given here.
tested on: T-24; assay: Induction of apoptosis n human T24 cells assessed as downregulation of Bcl-2 levels at 0.5 to 1 uM after 18 hrs by Western blot method; assay type: functional, cell-based; details: not given

Compound	Activity
Cc1cc(O)c2c3c4c(cc(O)c13)C(C)(C)C(=O)c1c(O)c(CNC(C)(C)C)c(O)c(c1-4)C2=O	Active

tested on: not listed separately; assay: Selectivity index, ratio of IC50 for HMEC1 cells to IC50 for p53 deficient human HCT116 cells; assay type: toxicity; details: HMEC1 cells and p53 deficient HCT116 cells, read-out: Ratio IC50

Compound	selectivity ratio
Cc1cc(O)c2c3c4c(cc(O)c13)C(C)(C)C(=O)c1c(O)c(CN(CC(=O)O)CC(=O)O)c(O)c(c1-4)C2=O	2 to 50
Cc1cc(O)c2c3c4c(cc(O)c13)C(C)(C)C(=O)c1c(O)c(CNC(C)(C)C)c(O)c(c1-4)C2=O	2 to 50

tested on: not listed separately; assay: Selectivity index, ratio of IC50 for HMEC1 cells to IC50 for human CEM cells; assay type: toxicity; details: HMEC1 cells and CEM cells, read-out: Ratio IC50

Compound	selectivity ratio
Cc1cc(O)c2c3c4c(cc(O)c13)C(C)(C)C(=O)c1c(O)c(CN(CC(=O)O)CC(=O)O)c(O)c(c1-4)C2=O	2 to 50
Cc1cc(O)c2c3c4c(cc(O)c13)C(C)(C)C(=O)c1c(O)c(CNC(C)(C)C)c(O)c(c1-4)C2=O	2 to 50

tested on: not listed separately; assay: Selectivity index, ratio of IC50 for HMEC1 cells to IC50 for human HeLa cells; assay type: toxicity; details: HMEC1 cells and HeLa cells, read-out: Ratio IC50

Compound	selectivity ratio
Cc1cc(O)c2c3c4c(cc(O)c13)C(C)(C)C(=O)c1c(O)c(CN(CC(=O)O)CC(=O)O)c(O)c(c1-4)C2=O	2 to 50
Cc1cc(O)c2c3c4c(cc(O)c13)C(C)(C)C(=O)c1c(O)c(CNC(C)(C)C)c(O)c(c1-4)C2=O	2 to 50

tested on: T-24; assay: Induction of apoptosis n human T24 cells assessed as caspase-3 cleavage at 0.5 to 1 uM after 18 hrs by Western blot method; assay type: functional, cell-based; details: not given

Compound	Activity
Cc1cc(O)c2c3c4c(cc(O)c13)C(C)(C)C(=O)c1c(O)c(CNC(C)(C)C)c(O)c(c1-4)C2=O	Active

tested on: not listed separately; assay: Selectivity index, ratio of IC50 for HMEC1 cells to IC50 for human K562/4 cells; assay type: toxicity; details: HMEC1 cells and K562/4 cells, read-out: Ratio IC50

Compound	selectivity ratio
Cc1cc(O)c2c3c4c(cc(O)c13)C(C)(C)C(=O)c1c(O)c(CN(CC(=O)O)CC(=O)O)c(O)c(c1-4)C2=O	2 to 50
Cc1cc(O)c2c3c4c(cc(O)c13)C(C)(C)C(=O)c1c(O)c(CNC(C)(C)C)c(O)c(c1-4)C2=O	2 to 50

biological target: T1, DNA topoisomerase 1 (Homo sapiens) (UniProt P11387); assay: Inhibition of human DNA topoisomerase 1 assessed as decrease in relaxation of pBR322 at <= 20 uM after 30 to 40 mins by agarose gel electrophoresis; details: not given
T1 sequence (whole entry): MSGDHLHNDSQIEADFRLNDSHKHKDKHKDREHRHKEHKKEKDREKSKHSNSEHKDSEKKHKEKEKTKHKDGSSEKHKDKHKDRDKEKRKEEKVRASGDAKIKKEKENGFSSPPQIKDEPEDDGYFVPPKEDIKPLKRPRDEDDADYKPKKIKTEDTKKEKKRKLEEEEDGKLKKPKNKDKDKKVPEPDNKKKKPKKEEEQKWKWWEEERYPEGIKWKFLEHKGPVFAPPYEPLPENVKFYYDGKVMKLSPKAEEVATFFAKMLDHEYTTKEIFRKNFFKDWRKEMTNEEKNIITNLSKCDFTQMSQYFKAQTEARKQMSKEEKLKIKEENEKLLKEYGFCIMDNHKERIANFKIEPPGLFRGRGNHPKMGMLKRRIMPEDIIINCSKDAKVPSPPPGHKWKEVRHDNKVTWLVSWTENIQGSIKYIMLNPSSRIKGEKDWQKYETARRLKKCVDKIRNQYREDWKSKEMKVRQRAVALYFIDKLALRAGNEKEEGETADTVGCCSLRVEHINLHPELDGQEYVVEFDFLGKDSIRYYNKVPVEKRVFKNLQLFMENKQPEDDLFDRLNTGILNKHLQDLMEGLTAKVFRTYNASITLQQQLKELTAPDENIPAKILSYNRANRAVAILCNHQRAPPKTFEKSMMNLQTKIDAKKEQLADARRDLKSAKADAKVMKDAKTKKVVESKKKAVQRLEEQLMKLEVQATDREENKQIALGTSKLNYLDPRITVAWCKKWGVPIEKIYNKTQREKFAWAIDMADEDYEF

Compound	Topoisomerase 1 inhibition (active/inactive)
Cc1cc(O)c2c3c4c(cc(O)c13)C(C)(C)C(=O)c1c(O)c(CN(CC(=O)O)CC(=O)O)c(O)c(c1-4)C2=O	Active

tested on: not listed separately; assay: Selectivity index, ratio of IC50 for HMEC1 cells to IC50 for human K562 cells; assay type: toxicity; details: HMEC1 cells and K562 cells, read-out: Ratio IC50

Compound	selectivity ratio
Cc1cc(O)c2c3c4c(cc(O)c13)C(C)(C)C(=O)c1c(O)c(CN(CC(=O)O)CC(=O)O)c(O)c(c1-4)C2=O	2 to 50
Cc1cc(O)c2c3c4c(cc(O)c13)C(C)(C)C(=O)c1c(O)c(CNC(C)(C)C)c(O)c(c1-4)C2=O	2 to 50

tested on: not listed separately; assay: Antiproliferative activity against human K562/4 cells after 72 hrs by MTT assay; assay type: functional, cell-based; details: K562/4, 72 h

Compound	IC50
Cc1cc(O)c2c3c4c(cc(O)c13)C(C)(C)C(=O)c1c(O)c(CN(CC(=O)O)CC(=O)O)c(O)c(c1-4)C2=O	3100 nM
Cc1cc(O)c2c3c4c(cc(O)c13)C(C)(C)C(=O)c1c(O)c(CNC(C)(C)C)c(O)c(c1-4)C2=O	1600 nM

tested on: HeLa; assay: Antiproliferative activity against human HeLa cells after 72 hrs by MTT assay; assay type: functional, cell-based; details: not given

Compound	IC50
Cc1cc(O)c2c3c4c(cc(O)c13)C(C)(C)C(=O)c1c(O)c(CN(CC(=O)O)CC(=O)O)c(O)c(c1-4)C2=O	6500 nM
Cc1cc(O)c2c3c4c(cc(O)c13)C(C)(C)C(=O)c1c(O)c(CNC(C)(C)C)c(O)c(c1-4)C2=O	700 nM

tested on: not listed separately; assay: Selectivity index, ratio of IC50 for HMEC1 cells to IC50 for mouse L1210 cells; assay type: toxicity; details: HMEC1 cells and L1210 cells, read-out: Ratio IC50

Compound	selectivity ratio
Cc1cc(O)c2c3c4c(cc(O)c13)C(C)(C)C(=O)c1c(O)c(CN(CC(=O)O)CC(=O)O)c(O)c(c1-4)C2=O	2 to 50

tested on: K562; assay: Antiproliferative activity against human K562 cells after 72 hrs by MTT assay; assay type: functional, cell-based; details: K562, 72 h

Compound	IC50
Cc1cc(O)c2c3c4c(cc(O)c13)C(C)(C)C(=O)c1c(O)c(CN(CC(=O)O)CC(=O)O)c(O)c(c1-4)C2=O	5500 nM
Cc1cc(O)c2c3c4c(cc(O)c13)C(C)(C)C(=O)c1c(O)c(CNC(C)(C)C)c(O)c(c1-4)C2=O	500 nM

tested on: HCT-116; assay: Antiproliferative activity against human HCT116 cells after 72 hrs by MTT assay; assay type: functional, cell-based; details: HCT-116, 72 h

Compound	IC50
Cc1cc(O)c2c3c4c(cc(O)c13)C(C)(C)C(=O)c1c(O)c(CN(CC(=O)O)CC(=O)O)c(O)c(c1-4)C2=O	200 nM
Cc1cc(O)c2c3c4c(cc(O)c13)C(C)(C)C(=O)c1c(O)c(CNC(C)(C)C)c(O)c(c1-4)C2=O	600 nM

tested on: L1210; assay: Antiproliferative activity against mouse L1210 cells after 72 hrs by MTT assay; assay type: functional, cell-based; details: L1210, 72 h

Compound	IC50
Cc1cc(O)c2c3c4c(cc(O)c13)C(C)(C)C(=O)c1c(O)c(CN(CC(=O)O)CC(=O)O)c(O)c(c1-4)C2=O	31000 nM
Cc1cc(O)c2c3c4c(cc(O)c13)C(C)(C)C(=O)c1c(O)c(CNC(C)(C)C)c(O)c(c1-4)C2=O	8800 nM

tested on: CCRF-CEM; assay: Antiproliferative activity against human CEM cells after 72 hrs by MTT assay; assay type: functional, cell-based; details: not given

Compound	IC50
Cc1cc(O)c2c3c4c(cc(O)c13)C(C)(C)C(=O)c1c(O)c(CN(CC(=O)O)CC(=O)O)c(O)c(c1-4)C2=O	9700 nM
Cc1cc(O)c2c3c4c(cc(O)c13)C(C)(C)C(=O)c1c(O)c(CNC(C)(C)C)c(O)c(c1-4)C2=O	300 nM

tested on: T-24; assay: Growth inhibition of human T24 cells after 72 hrs by cell impedance method; assay type: functional, cell-based; details: T-24, 72 h

Compound	IC50
Cc1cc(O)c2c3c4c(cc(O)c13)C(C)(C)C(=O)c1c(O)c(CNC(C)(C)C)c(O)c(c1-4)C2=O	1100 nM

tested on: T-24; assay: Induction of reactive oxygen species generation in human T24 cells at 1 uM after 30 mins by H2DCFDA dye-based flow cytometric method; assay type: functional, cell-based; details: not given

Compound	Activity
Cc1cc(O)c2c3c4c(cc(O)c13)C(C)(C)C(=O)c1c(O)c(CNC(C)(C)C)c(O)c(c1-4)C2=O	Active

tested on: not listed separately; assay: Selectivity index, ratio of IC50 for HMEC1 cells to IC50 for human HCT116 cells; assay type: toxicity; details: HMEC1 cells and HCT116 cells, read-out: Ratio IC50

Compound	selectivity ratio
Cc1cc(O)c2c3c4c(cc(O)c13)C(C)(C)C(=O)c1c(O)c(CN(CC(=O)O)CC(=O)O)c(O)c(c1-4)C2=O	2 to 50
Cc1cc(O)c2c3c4c(cc(O)c13)C(C)(C)C(=O)c1c(O)c(CNC(C)(C)C)c(O)c(c1-4)C2=O	2 to 50

tested on: T-24; assay: Induction of apoptosis n human T24 cells assessed as upregulation of Bak levels at 0.5 to 1 uM after 18 hrs by Western blot method; assay type: functional, cell-based; details: not given

Compound	Activity
Cc1cc(O)c2c3c4c(cc(O)c13)C(C)(C)C(=O)c1c(O)c(CNC(C)(C)C)c(O)c(c1-4)C2=O	Active

tested on: T-24; assay: Induction of apoptosis n human T24 cells assessed as PARP cleavage at 0.5 to 1 uM after 18 hrs by Western blot method; assay type: functional, cell-based; details: not given

Compound	Activity
Cc1cc(O)c2c3c4c(cc(O)c13)C(C)(C)C(=O)c1c(O)c(CNC(C)(C)C)c(O)c(c1-4)C2=O	Active

tested on: HMEC-1; assay: Antiproliferative activity against HMEC1 cells after 72 hrs by MTT assay; assay type: cell-based; details: Homo sapiens, HMEC-1, 72 h

Compound	IC50
Cc1cc(O)c2c3c4c(cc(O)c13)C(C)(C)C(=O)c1c(O)c(CN(CC(=O)O)CC(=O)O)c(O)c(c1-4)C2=O	34300 nM
Cc1cc(O)c2c3c4c(cc(O)c13)C(C)(C)C(=O)c1c(O)c(CNC(C)(C)C)c(O)c(c1-4)C2=O	7800 nM

tested on: T-24; assay: Induction of apoptosis n human T24 cells assessed as upregulation of p53 levels at 0.5 to 1 uM after 18 hrs by Western blot method; assay type: functional, cell-based; details: not given

Compound	Activity
Cc1cc(O)c2c3c4c(cc(O)c13)C(C)(C)C(=O)c1c(O)c(CNC(C)(C)C)c(O)c(c1-4)C2=O	Active

tested on: T-24; assay: Induction of apoptosis n human T24 cells at 1 uM after 24 hrs by annexin V-FITC/propidium iodide staining-based flow cytometric method; assay type: functional, cell-based; details: not given

Compound	Activity
Cc1cc(O)c2c3c4c(cc(O)c13)C(C)(C)C(=O)c1c(O)c(CNC(C)(C)C)c(O)c(c1-4)C2=O	Active

tested on: HCT-116; assay: Antiproliferative activity against p53 deficient human HCT116 cells after 72 hrs by MTT assay; assay type: functional, cell-based; details: HCT-116, 72 h

Compound	IC50
Cc1cc(O)c2c3c4c(cc(O)c13)C(C)(C)C(=O)c1c(O)c(CN(CC(=O)O)CC(=O)O)c(O)c(c1-4)C2=O	600 nM
Cc1cc(O)c2c3c4c(cc(O)c13)C(C)(C)C(=O)c1c(O)c(CNC(C)(C)C)c(O)c(c1-4)C2=O	300 nM

Reference: ChEMBL document CHEMBL4138182, “Aminomethylation of heliomycin: Preparation and anticancer characterization of the first series of semi-synthetic derivatives” (Eur J Med Chem, 2018)
